Here are results for 8 compounds from patent US20120178738A1, “DIBENZO [B,F] [1,4]OXAZAPINE COMPOUNDS” (ARYX THERAPEUTICS, INC., priority 2007, published 2012).

The target in one series is T1, human M3 receptors (Homo sapiens, UniProt P20309).
T1 construct: expressed in transfected cells; host or cells: Chinese hamster ovary cells (membranes)
The experiment in a line: hM3 receptor radioligand binding ([3H]NMS). Conditions: pKi reported on a scale of 1 through 5; read-out: M3 (pKi) (converted). The method, boiled down:
(§1)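 Membranes/tissue + radioligand (single conc., equilibrium) + test cpd concentration range; filtration separation; NSB via known receptor blocker; NSB-corrected displacement curves analysed.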

The next series deals with T2, human 5HT7 receptors (Homo sapiens, UniProt P34969).
T2 construct: expressed in transfected cells; host or cells: Chinese hamster ovary cells (membranes)
T2 sequence (P34969 whole entry): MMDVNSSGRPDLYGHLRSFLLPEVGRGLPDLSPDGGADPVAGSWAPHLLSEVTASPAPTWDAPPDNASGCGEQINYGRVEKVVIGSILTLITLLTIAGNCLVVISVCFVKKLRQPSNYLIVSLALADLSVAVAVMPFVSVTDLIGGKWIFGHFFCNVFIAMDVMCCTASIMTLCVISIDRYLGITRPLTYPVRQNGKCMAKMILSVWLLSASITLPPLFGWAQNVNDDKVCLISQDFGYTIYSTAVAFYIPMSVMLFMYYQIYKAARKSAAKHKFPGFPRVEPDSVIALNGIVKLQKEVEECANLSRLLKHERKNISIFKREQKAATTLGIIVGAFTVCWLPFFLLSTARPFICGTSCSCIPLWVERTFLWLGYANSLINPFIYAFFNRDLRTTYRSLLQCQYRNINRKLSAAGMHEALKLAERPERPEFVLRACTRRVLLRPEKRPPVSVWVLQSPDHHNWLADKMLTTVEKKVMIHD
Put plainly: h5-HT7 receptor radioligand binding ([3H]5-CT). The conditions noted are these: pKi reported on a scale of 1 through 5; read-out: 5HT7 (pKi) (converted). An outline of the steps:
as §1

Another series has as its target T3, human M1 receptors (Homo sapiens, UniProt P11229).
T3 construct: expressed in transfected cells; host or cells: Chinese hamster ovary cells (membranes)
T3 sequence (P11229 1-460): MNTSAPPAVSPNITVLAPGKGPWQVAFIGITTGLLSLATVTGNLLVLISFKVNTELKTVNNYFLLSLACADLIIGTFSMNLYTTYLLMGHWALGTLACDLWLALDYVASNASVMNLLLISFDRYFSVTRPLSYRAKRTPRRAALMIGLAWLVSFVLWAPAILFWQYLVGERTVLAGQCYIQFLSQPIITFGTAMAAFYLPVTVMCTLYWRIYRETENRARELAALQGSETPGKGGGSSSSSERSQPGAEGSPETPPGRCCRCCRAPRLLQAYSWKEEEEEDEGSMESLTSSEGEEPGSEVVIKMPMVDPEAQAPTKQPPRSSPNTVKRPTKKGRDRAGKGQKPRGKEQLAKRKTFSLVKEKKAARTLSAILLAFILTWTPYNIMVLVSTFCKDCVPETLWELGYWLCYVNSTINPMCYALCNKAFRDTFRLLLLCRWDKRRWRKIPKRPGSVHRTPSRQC
The experiment in a line: hM1 receptor radioligand binding ([3H]NMS). Conditions: pKi reported on a scale of 1 through 5. An outline of the steps:
as §1

Another series concerns the target T4, 5-HT2A receptor (Rattus norvegicus, UniProt P14842).
T4 construct: Eight strips of tissue (0.5 cm long) were cut. and were mounted in 10 ml organ baths; tissue Charles River Laboratories; host or cells: rat aorta strips, endothelium removed
The experiment in a line: cell-based. Conditions: read-out: 5HT2A (pKb) (converted). The method, boiled down:
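Endothelium-denuded aortic strips from male Sprague Dawley rats held at 37° C in carbogen-aerated Krebs, pH 7.4, under 2 g resting tension. Contraction recorded as tension change, expressed as % of maximal 5-HT response; agonist EC50 from Parker–Waud fit, antagonist pKB/pA2 from concentration-ratios.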

The next series addresses T5, human 5HT2C receptors (Homo sapiens, UniProt P28335).
T5 construct: expressed in transfected cells; host or cells: human embryo kidney cells (membranes)
T5 sequence (P28335 33-458): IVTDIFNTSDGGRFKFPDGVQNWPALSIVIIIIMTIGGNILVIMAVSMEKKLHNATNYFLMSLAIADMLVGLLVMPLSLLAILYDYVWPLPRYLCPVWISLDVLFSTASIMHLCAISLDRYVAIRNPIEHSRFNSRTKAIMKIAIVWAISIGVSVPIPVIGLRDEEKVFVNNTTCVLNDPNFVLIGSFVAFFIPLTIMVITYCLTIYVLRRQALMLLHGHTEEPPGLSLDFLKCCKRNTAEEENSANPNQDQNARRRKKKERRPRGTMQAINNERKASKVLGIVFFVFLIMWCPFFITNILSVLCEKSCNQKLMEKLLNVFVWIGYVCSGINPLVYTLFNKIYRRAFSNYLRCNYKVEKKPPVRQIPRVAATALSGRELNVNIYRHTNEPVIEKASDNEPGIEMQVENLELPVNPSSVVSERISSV
The experiment in a line: h5-HT2C receptor radioligand binding ([3H]Mesulergine). The conditions noted are these: pKi reported on a scale of 1 through 5. The method, boiled down:
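Competition binding: membranes incubated to equilibrium with a single concentration of [3H]mesulergine and a range of unlabeled test compound concentrations, then filtered. Nonspecific binding defined with a known receptor blocker; displacement concentration-response, corrected for nonspecific binding, gave the affinity measure.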

The target in another series is T6, human 5HT1A receptors (Homo sapiens, UniProt P08908).
T6 construct: expressed in transfected cells; host or cells: Chinese hamster ovary cells (membranes)
T6 sequence (P08908 1-422): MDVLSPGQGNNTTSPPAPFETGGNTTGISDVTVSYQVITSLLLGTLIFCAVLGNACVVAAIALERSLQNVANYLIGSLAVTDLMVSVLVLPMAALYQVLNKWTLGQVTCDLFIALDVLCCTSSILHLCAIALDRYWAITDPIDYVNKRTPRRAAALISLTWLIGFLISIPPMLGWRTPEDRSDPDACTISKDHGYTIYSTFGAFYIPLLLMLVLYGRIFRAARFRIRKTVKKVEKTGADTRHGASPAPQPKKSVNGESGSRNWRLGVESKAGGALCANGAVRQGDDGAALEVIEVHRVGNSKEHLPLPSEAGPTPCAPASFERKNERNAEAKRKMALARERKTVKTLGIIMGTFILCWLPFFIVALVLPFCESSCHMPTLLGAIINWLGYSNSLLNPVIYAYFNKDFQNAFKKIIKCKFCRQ
Put plainly: h5-HT1A receptor radioligand binding ([3H]8OH-DPAT). The conditions noted are these: pKi reported on a scale of 1 through 5. An outline of the steps:
as §1

The target in series [1] is T7, human D2L dopamine receptors (Homo sapiens, UniProt P14416).
T7 construct: expressed in transfected cells; host or cells: insect Sf9 cells (membranes)
T7 sequence (P14416 whole entry): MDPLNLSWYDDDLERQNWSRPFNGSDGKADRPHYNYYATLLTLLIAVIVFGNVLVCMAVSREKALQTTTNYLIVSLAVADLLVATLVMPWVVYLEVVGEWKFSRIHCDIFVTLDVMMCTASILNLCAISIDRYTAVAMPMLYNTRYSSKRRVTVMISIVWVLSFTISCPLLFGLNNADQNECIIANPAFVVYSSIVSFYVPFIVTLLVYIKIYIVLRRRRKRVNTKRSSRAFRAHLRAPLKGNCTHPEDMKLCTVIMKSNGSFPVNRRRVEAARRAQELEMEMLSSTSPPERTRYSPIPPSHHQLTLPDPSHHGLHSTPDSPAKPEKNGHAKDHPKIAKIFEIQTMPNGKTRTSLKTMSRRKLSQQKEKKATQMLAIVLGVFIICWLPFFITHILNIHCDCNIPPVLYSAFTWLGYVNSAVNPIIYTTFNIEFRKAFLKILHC
Put plainly: hD2L receptor radioligand binding ([3H]spiperone). The conditions noted are these: pKi reported on a scale of 1 through 5; read-out: D2L (pKi) (converted). The method, boiled down:
as §1

In the next series the target is T8, human H1 receptors (Homo sapiens, UniProt P35367).
T8 construct: expressed in transfected cells; host or cells: Chinese hamster ovary cells (membranes)
T8 sequence (P35367 whole entry): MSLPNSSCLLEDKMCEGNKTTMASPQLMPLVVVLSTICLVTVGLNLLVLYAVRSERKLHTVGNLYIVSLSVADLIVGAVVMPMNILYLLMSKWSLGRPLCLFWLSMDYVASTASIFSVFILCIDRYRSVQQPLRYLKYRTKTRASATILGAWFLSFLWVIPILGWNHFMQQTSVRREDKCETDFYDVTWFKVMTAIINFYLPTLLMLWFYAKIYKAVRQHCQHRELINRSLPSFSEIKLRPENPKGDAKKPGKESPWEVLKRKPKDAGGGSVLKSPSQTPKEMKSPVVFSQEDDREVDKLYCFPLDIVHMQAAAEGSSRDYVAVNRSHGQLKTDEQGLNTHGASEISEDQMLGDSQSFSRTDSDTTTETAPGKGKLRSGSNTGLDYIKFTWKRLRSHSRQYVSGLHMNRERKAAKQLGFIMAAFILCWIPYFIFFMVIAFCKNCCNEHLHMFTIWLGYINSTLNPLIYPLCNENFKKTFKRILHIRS
Put plainly: hH1 receptor radioligand binding ([3H]Pyrilamine). The conditions noted are these: pKi reported on a scale of 1 through 5. The method, boiled down: as §1

The target in series [2] is T9, human D2s dopamine receptors (Homo sapiens, UniProt P14416).
T9 construct: expressed in transfected cells; host or cells: Chinese hamster ovary cells (membranes)
T9 sequence (P14416 1-414 isoform P14416-2): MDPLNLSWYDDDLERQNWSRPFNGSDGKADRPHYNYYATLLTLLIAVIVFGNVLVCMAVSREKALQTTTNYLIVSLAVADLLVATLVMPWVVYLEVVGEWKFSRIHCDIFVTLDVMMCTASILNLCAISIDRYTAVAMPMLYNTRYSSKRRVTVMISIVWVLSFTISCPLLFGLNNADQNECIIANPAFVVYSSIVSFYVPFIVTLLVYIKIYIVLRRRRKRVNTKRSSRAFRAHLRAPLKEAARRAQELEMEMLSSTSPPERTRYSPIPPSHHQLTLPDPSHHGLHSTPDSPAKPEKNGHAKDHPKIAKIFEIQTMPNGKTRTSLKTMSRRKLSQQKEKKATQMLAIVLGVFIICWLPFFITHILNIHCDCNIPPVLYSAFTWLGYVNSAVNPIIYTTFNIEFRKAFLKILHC
The experiment in a line: hD2S receptor radioligand binding ([3H]spiperone). Conditions: pKi reported on a scale of 1 through 5. An outline of the steps: as §1

The test system of series [3] is locomotor activity in rats. The experiment in a line: Spontaneous locomotor activity (open field). The class given is in vivo. Conditions: clozapine comparator, dose not given. Here is the method:
One of the common side effects of many antipsychotic drugs is sedation. It has been shown that agents that have sedative actions in man have the same effect in animals. The purpose of these studies was to evaluate the effect of test compounds on the locomotor activity in rats, which is used to assess the sedative properties of antipsychotic compounds.
The animals (male Sprague Dawley rats, about 300-450 g; Charles River) were assessed for ambulation for 30 minutes before and for 30 min after vehicle or test compounds. […] Locomotor activity is quantified by the number of photobeams crossed by the animal over several 3×10 min intervals.

Another series deals with catalepsy in mice. Put plainly: Catalepsy mouse model. Type of series: in vivo. Conditions: highest dose 30 mg/kg. Here is the method:
A catalepsy mouse model was used to investigate a potential side effect of antipsychotic agents.
The catalepsy methodology used herein has been adapted from Tada, M. et al. ((2004). Psychopharmacol., 176, 94-100) as well as Wang et al. ((2000). J. Neurosci., 20, 8305-8314).
The animals (Swiss Webster, female, about 20 g; Charles River) were administered compounds of the invention (1 μg/kg-30 mg/kg ip). Twenty seven minutes after test compound injection, the mice's forepaws were placed on a horizontal steel bar (diameter 0.2 cm), elevated 3-5 cm above the tabletop and the time taken for the animals to remove both paws was recorded for up to 2 min.

A value given as a limit tells only on which side of the number the result lay.

T4 sequence (P14842 whole entry): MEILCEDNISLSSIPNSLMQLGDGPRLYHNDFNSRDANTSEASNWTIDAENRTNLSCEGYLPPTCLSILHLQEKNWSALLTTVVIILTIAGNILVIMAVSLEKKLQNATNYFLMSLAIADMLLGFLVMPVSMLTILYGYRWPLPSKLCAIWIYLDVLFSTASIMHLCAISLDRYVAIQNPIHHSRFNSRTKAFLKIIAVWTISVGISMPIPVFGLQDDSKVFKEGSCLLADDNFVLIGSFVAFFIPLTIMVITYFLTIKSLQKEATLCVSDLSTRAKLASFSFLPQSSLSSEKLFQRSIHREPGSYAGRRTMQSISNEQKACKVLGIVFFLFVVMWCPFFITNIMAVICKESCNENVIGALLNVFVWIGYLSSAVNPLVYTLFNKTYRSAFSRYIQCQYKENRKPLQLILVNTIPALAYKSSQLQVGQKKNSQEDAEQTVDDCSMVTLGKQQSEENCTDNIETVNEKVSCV
T1 sequence (P20309 whole entry): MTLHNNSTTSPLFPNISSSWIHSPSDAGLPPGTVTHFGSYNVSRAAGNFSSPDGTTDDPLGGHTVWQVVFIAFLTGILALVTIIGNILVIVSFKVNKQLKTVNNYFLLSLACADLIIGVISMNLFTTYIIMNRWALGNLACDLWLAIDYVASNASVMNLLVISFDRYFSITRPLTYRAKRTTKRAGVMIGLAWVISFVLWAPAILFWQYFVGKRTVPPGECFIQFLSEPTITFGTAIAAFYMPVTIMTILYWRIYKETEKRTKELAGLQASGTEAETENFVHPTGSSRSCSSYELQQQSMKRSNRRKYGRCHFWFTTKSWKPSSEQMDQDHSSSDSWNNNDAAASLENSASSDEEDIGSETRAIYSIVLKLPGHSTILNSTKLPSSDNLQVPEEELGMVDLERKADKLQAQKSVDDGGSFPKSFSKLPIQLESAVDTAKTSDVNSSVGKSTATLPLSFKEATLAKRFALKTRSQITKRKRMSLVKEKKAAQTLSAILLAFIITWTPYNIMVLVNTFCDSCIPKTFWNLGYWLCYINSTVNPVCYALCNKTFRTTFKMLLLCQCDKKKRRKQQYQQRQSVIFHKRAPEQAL

As to `COc1ccc(NC(=O)C[C@H]2CN(C3=Nc4cc(Cl)ccc4Oc4ccccc43)CCN2)cn1` [FP, (S,E)-2-(4-(8-chlorodibenzo[b,f][1,4]oxazepin-11-yl)piperazin-2-yl)-N-(6-methoxypyridin-3-yl)acetamide], the Ki was more than 10000 nM on human M3 receptors; 1580 to 3890 nM on human 5HT7 receptors; 5010 to 9770 nM at human M1 receptors; 10 to 97.7 nM on human 5HT2C receptors; not above 9.77 nM on human 5HT1A receptors; 631 to 2450 nM in series [1]. In addition, the Ki was 10 to 97.7 nM at human H1 receptors and 631 to 2450 nM in series [2]. Moreover, at 5-HT2A receptor, the Kb is 10 to 30.9 nM.
As to `O=C(C[C@H]1CN(C2=Nc3cc(Cl)ccc3Oc3ccccc32)CCN1)NCC(F)F` [FQ, (S,E)-2-(4-(8-chlorodibenzo[b,f][1,4]oxazepin-11-yl)piperazin-2-yl)-N-(2,2-difluoroethyl)acetamide], the Ki at human M3 receptors is more than 10000 nM; on human 5HT7 receptors, 631 to 1550 nM; on human M1 receptors, 5010 to 9770 nM; at human 5HT2C receptors, 10 to 97.7 nM; on human 5HT1A receptors, 10 to 97.7 nM; in series [1], 631 to 2450 nM. Further, the Ki is 10 to 97.7 nM on human H1 receptors and 631 to 2450 nM in series [2]. Further, the Kb on 5-HT2A receptor is 10 to 30.9 nM.
Take `O=C(C[C@H]1CN(C2=Nc3cc(Cl)ccc3Oc3ccccc32)CCN1)NC[C@@H]1CCCO1` [FR, 2-((S)-4-((E)-8-chlorodibenzo[b,f][1,4]oxazepin-11-yl)piperazin-2-yl)-N-(((S)-tetrahydrofuran-2-yl)methyl)acetamide]: the Ki at human M3 receptors was more than 10000 nM; on human 5HT7 receptors, 631 to 1550 nM; at human M1 receptors, more than 10000 nM; on human 5HT2C receptors, 10 to 97.7 nM; on human 5HT1A receptors, 10 to 97.7 nM; in [1], 158 to 617 nM. The Ki at human H1 receptors is 10 to 97.7 nM; in [2], 158 to 617 nM. Besides, the Kb on 5-HT2A receptor is 3.16 to 9.77 nM.
In the case of `COCCCNC(=O)C[C@H]1CN(C2=Nc3cc(Cl)ccc3Oc3ccccc32)CCN1` [GD, (S,E)-2-(4-(8-chlorodibenzo[b,f][1,4]oxazepin-11-yl)piperazin-2-yl)-N-(3-methoxypropyl)acetamide], the Ki is more than 10000 nM at human M3 receptors; 631 to 1550 nM at human 5HT7 receptors; more than 10000 nM at human M1 receptors; 10 to 97.7 nM on human 5HT2C receptors; 10 to 97.7 nM on human 5HT1A receptors; 631 to 2450 nM in series [1]. Further, the results for the Ki (at human H1 receptors; in series [2]) were 10 to 97.7 nM and 631 to 2450 nM, respectively. For the same compound, at 5-HT2A receptor, the Kb is 10 to 30.9 nM.
In the case of `O=C(C[C@H]1CN(C2=Nc3cc(Cl)ccc3Oc3ccccc32)CCN1)NCC(O)C(F)(F)F` (stereo partly drawn) [GF, 2-((S)-4-((E)-8-chlorodibenzo[b,f][1,4]oxazepin-11-yl)piperazin-2-yl)-N-(3,3,3-trifluoro-2-hydroxypropyl)acetamide], the Ki on human M3 receptors is more than 10000 nM; on human 5HT7 receptors it was 631 to 1550 nM; at human M1 receptors it was more than 10000 nM; on human 5HT2C receptors it was 10 to 97.7 nM; at human 5HT1A receptors, 100 to 977 nM; in [1], 2510 to 9770 nM. The Ki was 10 to 97.7 nM at human H1 receptors and 631 to 2450 nM in series [2]. Further, at 5-HT2A receptor, the Kb was 10 to 30.9 nM.
For `O=C(C[C@H]1CN(C2=Nc3cc(Cl)ccc3Oc3ccccc32)CCN1)N1CCOCC1` [GG, (S,E)-2-(4-(8-chlorodibenzo[b,f][1,4]oxazepin-11-yl)piperazin-2-yl)-1-morpholinoethanone], the Ki was 7940 to 9770 nM at human M3 receptors; 631 to 1550 nM on human 5HT7 receptors; 1260 to 2450 nM at human M1 receptors; 10 to 97.7 nM on human 5HT2C receptors; 10 to 97.7 nM on human 5HT1A receptors; 2510 to 9770 nM in [1]. Further, the Ki at human H1 receptors was not above 9.77 nM; in [2] it was 2510 to 9770 nM. Further, the Kb at 5-HT2A receptor is 3.16 to 9.77 nM.
On to `O=C(C[C@H]1CN(C2=Nc3cc(Cl)ccc3Oc3ccccc32)CCN1)N1CCC[C@H]1C(F)(F)F` [GH, 2-((S)-4-((E)-8-chlorodibenzo[b,f][1,4]oxazepin-11-yl)piperazin-2-yl)-1-((S)-2-(trifluoromethyl)pyrrolidin-1-yl)ethanone], for which the Ki on human M3 receptors was 7940 to 9770 nM; on human 5HT7 receptors it was 1580 to 3890 nM; at human M1 receptors, not above 1230 nM; at human 5HT2C receptors, 100 to 977 nM; at human 5HT1A receptors, 100 to 977 nM; in [1] it was 631 to 2450 nM. The Ki at human H1 receptors was 10 to 97.7 nM; in series [2], 2510 to 9770 nM. Moreover, at 5-HT2A receptor, the Kb is 31.6 to 97.7 nM.
In the case of `CN1CCN(C2=Nc3cc(Cl)ccc3Nc3ccccc32)CC1` [clozapine, reference compound], in [3], the “locomotor activity in rat (open field)” value was “trend toward sedation”. Also, in the series on catalepsy in mice, the catalepsy entry is “induced catalepsy”.
